The values below come from publication PMC3975964, “Protective effect of a sesamin derivative, 3-bis (3-methoxybenzyl) butane-1, 4-diol on ischemic and hypoxic neuronal injury” (Journal of Biomedical Science, 2014).

Data set [1] can be described thus: PAMPA-BBB membrane permeability assay. To be noted: pig, PAMPA, 100 μg/ml, pH 7.4. On the procedure:
The blood–brain barrier limits drug access into the brain, due to tight junctions, membrane drug transporters, and unique lipid composition. Porcine whole-brain lipid is successfully used in passive permeability test for CNS drugs.
The parallel artificial membrane permeation assay (PAMPA) was carried out in a sandwich-like 96-well PAMPA plate formed by a top filter plate containing acceptor wells and a bottom plate containing donor wells. Each composite well was divided into two chambers: 300 μl of donor solution (test article or QC standards) at the bottom and 200 μl of acceptor buffer (PBS buffer containing 5% DMSO) at the top, separated by a polyvinylidene fluoride (PVDF, 0.45 μm pore size) membrane, coated with 4 μl of 20 mg/ml porcine polar brain lipid (PBL) in n-dodecane. […] The final DMSO concentration in working stock solution is 5%. Each compound was performed in triplicate. The test compound diffused from the donor well through the lipid membrane and into the acceptor well. The sandwich plate was placed with the plate lid and incubated at room temperature for approximately 18 h. After reaching diffusion equilibration, the PAMPA sandwich plate was disassembled and the concentration of drug in the acceptor, the donor, and the reference wells was determined using a TECAN microplate reader (Durham, NC, USA).
For orientation: In PAMPA a lipid-coated filter parts donor from acceptor wells.

For data set [2] the following is noted: PAMPA-BBB, known value; no reference given; cited from earlier work.

With `c1cc2c(cc1[C@H]1OC[C@H]3[C@@H]1CO[C@@H]3c1ccc3c(c1)OCO3)OCO2` [Sesamin, sesamin], the Pe in data set [1] was 0.00 ± 0.01 10^ -6 cm/s.

Consider `Cn1c(=O)c2[nH]cnc2n(C)c1=O` [Theophylline, theophylline], for which the “Known Pe” value in data set [2] is 0.12 ~ 0.18 10^ -6 cm/s.
